# Values of other authors, collected in patent US20240285565A1, “USE OF (S)-3-AMINO-4-(DIFLUOROMETHYLENYL)CYCLOPENT-1-ENE-1-CARBOXYLIC ACID IN THE TREATMENT OF DIABETES AND PRE-DIABETES” (Ovid Therapeutics Inc., priority 2023, published 2024).
# Assays:
# [1] = molecular target: aspartate aminotransferase (Asp-AT)
# OAT = molecular target: T1, OAT (Homo sapiens, UniProt P04181)
# T1 sequence (P04181 26-439): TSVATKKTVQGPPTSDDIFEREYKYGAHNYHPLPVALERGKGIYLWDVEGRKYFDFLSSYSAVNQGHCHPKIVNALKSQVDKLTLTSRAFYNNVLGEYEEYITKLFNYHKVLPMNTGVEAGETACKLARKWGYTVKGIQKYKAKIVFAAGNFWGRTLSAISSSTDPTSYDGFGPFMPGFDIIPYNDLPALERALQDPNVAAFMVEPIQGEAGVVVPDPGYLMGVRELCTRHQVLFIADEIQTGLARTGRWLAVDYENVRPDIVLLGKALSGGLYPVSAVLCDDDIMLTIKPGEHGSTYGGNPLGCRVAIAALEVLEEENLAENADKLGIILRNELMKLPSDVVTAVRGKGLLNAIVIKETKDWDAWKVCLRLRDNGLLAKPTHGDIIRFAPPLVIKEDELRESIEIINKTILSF
# [2] = molecular target: alanine aminotransferase (Ala-AT)
SMILES,IC50 ([1]; reversible inhibition) [µM],Kinact/K1 (OAT) (OAT) [M⁻¹ s⁻¹],times more efficient an inactivator of OAT than CPP-115 (OAT; ratio of Kinact/K1 relative to CPP-115) [times],IC50 ([2]; reversible inhibition) [µM],inactivation or inhibition of Asp-AT ([1]; result in words),Ki (OAT; read-out: K1 (OAT)) [µM],inactivation or inhibition of Ala-AT ([2]; result in words)
N[C@H]1C=C(C(=O)O)CC1=C(F)F [(S)-3-amino-4-(difluoromethylenyl)cyclopent-1-ene-1-carboxylic acid],> 4000,127,9.0,> 4000,–,–,–
"N[C@H]1C[C@@H](C(=O)O)CC1=C(F)F [CPP-115, (1S,3S)-3-amino+difluoromethylenyl-1-cyclopentanoic acid, reference compound]",–,–,–,–,not to inactivate or inhibit,116,not to inactivate or inhibit
